PMC9292375, “Structural basis of an epitope tagging system derived from Haloarcula marismortui bacteriorhodopsin I D94N and its monoclonal antibody GD‐26” (The Febs Journal, 2021)
Several values for one entry are separate records, joined by “and”; a condition that tells them apart may be missing. Equal entries are not always repeated. Entries after “also recorded” stand apart in the source; their conditions may differ. Blank lines part the entries; values can stand above or below the molecule they belong to. Where a SMILES comes first, the peptide text is derived from it.

Assays:
[1] = Protease resistance of the TD tag during expression and purification; details: without protease inhibitors; tag remains attached and detectable after expression and purification from bacterial and mammalian cell systems
[2] = molecular target: G196; parameters: method as in PMID 28266535; details: anti‐tag antibody G196; read-out: Affinity (K D); cited from earlier work
[3] = molecular target: M2; details: read-out: Affinity (K D); anti‐tag antibody M2; cited from earlier work
[4] = molecular target: 9E10; details: anti‐tag antibody 9E10; read-out: Affinity (K D); cited from earlier work
[5] = molecular target: GD‐26 Fab; assay: ITC titration of peptides or TD‐tagged eGFP into GD‐26 Fab; format: binding, mouse; details: 25 °C, Tris buffer pH 7.5, engineered synthetic peptides, single experiment (n = 1)
Method: The titration experiments were performed with a MicroCal PEAQ‐ITC Automated (Malvern Panalytical, Malvern, UK) at 25 °C. The ITC sample cell contained 200 μL of GD‐26 IgG or GD‐26 Fab in the Tris buffer (50 mM Tris, 150 mM NaCl, pH 7.5). In the syringe, 40 μL of synthetic peptides (peptide III–V) or TD‐tagged eGFP in the same Tris buffer was injected into the sample cell using 20 injections (0.4 μL for the first injection). Prior to data analysis, heats of dilution generated by injecting the peptide solution into the buffer in the sample cell were subtracted from the experimental data. The experimental raw data were analysed using the MicroCal PEAQ‐ITC Analysis software package provided with the instrument. The first data point was removed for fitting the data to a one‐set‐of‐sites model. After entering sample concentrations, the inbuilt function for fitting is operated by clicking iteration button until a good fit to the experimental data points of the isotherms is achieved and Chi‐squared is no longer decreasing. The final fitting parameters including K D, changes in enthalpy (ΔH), entropy (ΔS) and Gibb's free energy (ΔG) and binding stoichiometry were generated by the same software.

[6] = molecular target: Nanobody ALFA; parameters: method as in PMID 31562305; details: read-out: Affinity (K D); cited from earlier work
[7] = molecular target: 4B2; parameters: method as in PMID 24480187; details: anti‐tag antibody 4B2; read-out: Affinity (K D); cited from earlier work
[8] = molecular target: T1, TD peptide (GTGATPADD), peptide V from the C terminus of HmBRI D94N (Haloarcula marismortui HmBRI C terminus …); assay: ITC; synthetic peptide in the syringe titrated into GD-26 Fab or GD-26 IgG (10 μM) in the cell; 25 °C; 50 mM Tris, 150 mM NaCl, pH 7.5; one-set-of-sites model; details: both partners purified
T1 construct: nine residues at the C terminus of Haloarcula marismortui bacteriorhodopsin I (HmBRI); residue numbers 1-9 count on: the TD peptide; also called TD tag; wild-type TD peptide; source: synthetic peptide
T1 chain: GTGATPADD

[9] = Storage stability of GD‐26 IgG; format: physicochemical; details: stored at 4 °C in Tris buffer

Molecule: C[C@H](NC(=O)CNC(=O)[C@@H](NC(=O)CN)[C@@H](C)O)C(=O)N[C@H](C(=O)N1CCC[C@H]1C(=O)N[C@@H](C)C(=O)N[C@@H](CC(=O)O)C(=O)N[C@@H](CC(=O)O)C(=O)O)[C@@H](C)O [TD] (H-GTGATPADD-OH)
cellular protease resistance and proteolytic stability [1]: good cellular protease resistance and proteolytic stability

Molecule: DLVPR
Kd [2]: 1.25 nM

Molecule: DYKDDDDK [FLAG]
Kd [3]: 3 to 31 nM

Molecule: EQKLISEEDL [c‐Myc]
Kd [4]: 2.2 to 560 nM

Molecule: GTGATPA [C2, engineered TD peptide, Asp9 and Asp8 depleted]
K D [5]: complete loss of binding; also recorded: No binding

Molecule: SRLEEELRRRLTE [ALFA]
Kd [6]: 0.026 nM

Molecule: TPADD [N4, engineered TD peptide, Gly1 to Ala4 deleted]
K D [5]: completely diminished its capability to bind; also recorded: No binding

Molecule: YPYDVPDYA [HA]
Kd [7]: 1.6 nM

Kd [8]: 22.6 nM and 18.8 nM
dH [8]: -12.2 kcal/mol
stoichiometry N [8]: 2.28 sites and 2.27 sites
B1: GD-26 IgG (recombinant monoclonal antibody GD-26, mouse IgG2a) (antibody, V domains shown)
VH: QVQLRQSGPELVKPGASVKMSCRASGYTFTNYNIHWVRQRPGQGLEWIGWIYPVDGTTKYNEKFKDKTTLTSDKSSSTAYMSLSGLTSEDSAIYFCARGLDNWGQGTSVTVSS
VL: DVVLTQTPLSLSVTIGQPASISCRSSQRLLYSNGKTYLNWFQQRPGQAPKYLMFQVSKLGPGIPARFSGSGSETDFTLKISRVEAEDLGVYYCFQGTFFPHTFGGGTKLEMK
notes: PDB 7DOH); Mouse IgG2a isotype; the same light-chain plasmid as for the Fab; source: Expi293F, transient co-transfection, secreted; purified (HiTrap Protein G, Superdex 200 gel filtration); copies: 2 + 2

B2: GD‐26 IgG: recombinant monoclonal antibody, mouse IgG2a isotype, raised against HmBRI D94N (antibody, V domains shown)
VH: B1 VH
VL: B1 VL
long‐term stability on storage [9]: over a year
